From PubChem BioAssay AID270 (DTP/NCI, 2004)
Several values for one entry are separate records, joined by “and”; a condition that tells them apart may be missing. Identical values can stand only once. Results filed as inconclusive are left out.

Tested on: BDF1 mice, s.c. Lewis lung carcinoma, T/C %
Assay: NCI In Vivo Anticancer Drug Screen. Data for tumor model Lewis Lung Carcinoma (subcutaneous) in B6D2F1 (BDF1) mice
Method in brief: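 First, mice carry a transplantable tumor. Next, groups receive either compound or vehicle. Finally, survival or tumor dimensions in the dosed animals are divided by the corresponding control figure.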

O=S(=O)(O)C(Nc1ccccc1)c1ccccc1 (stereo not drawn)
T/C (endpoint: mean tumor weight, dose: 100.0 mg/kg/injection, schedule: Q01DX011 (ip), vehicle: water, higher = larger tumour): 51 % of control | T/C (endpoint: mean tumor weight, dose: 200.0 mg/kg/injection, schedule: Q01DX011 (ip), vehicle: water, higher = larger tumour): 71 % of control | T/C (endpoint: mean tumor weight, dose: 400.0 mg/kg/injection, schedule: Q01DX011 (ip), vehicle: water, higher = larger tumour): 27 % of control

COC(=O)c1ccccc1NC(c1ccccn1)c1ccc2cccnc2c1O (stereo not drawn)
T/C (endpoint: mean tumor weight, dose: 10.0 mg/kg/injection, schedule: Q01DX011 (ip), vehicle: carboxymethylcellulose (CMC), higher = larger tumour): 55 % of control | T/C (endpoint: mean tumor weight, dose: 25.0 mg/kg/injection, schedule: Q01DX011 (ip), vehicle: carboxymethylcellulose (CMC), higher = larger tumour): 111 % of control | T/C (endpoint: mean tumor weight, dose: 37.0 mg/kg/injection, schedule: Q01DX011 (ip), vehicle: carboxymethylcellulose (CMC), higher = larger tumour): 115 % of control | T/C (endpoint: mean tumor weight, dose: 50.0 mg/kg/injection, schedule: Q01DX011 (ip), vehicle: carboxymethylcellulose (CMC), higher = larger tumour): 56 % of control | T/C (endpoint: mean tumor weight, dose: 62.0 mg/kg/injection, schedule: Q01DX011 (ip), vehicle: carboxymethylcellulose (CMC), higher = larger tumour): 30 % of control | T/C (endpoint: mean tumor weight, dose: 70.0 mg/kg/injection, schedule: Q01DX011 (ip), vehicle: carboxymethylcellulose (CMC), higher = larger tumour): 78 % of control | T/C (endpoint: mean tumor weight, dose: 75.0 mg/kg/injection, schedule: Q01DX011 (ip), vehicle: carboxymethylcellulose (CMC), higher = larger tumour): 86 % of control | T/C (endpoint: mean tumor weight, dose: 125.0 mg/kg/injection, schedule: Q01DX011 (ip), vehicle: carboxymethylcellulose (CMC), higher = larger tumour): 33 % of control | T/C (endpoint: mean tumor weight, dose: 150.0 mg/kg/injection, schedule: Q01DX011 (ip), vehicle: carboxymethylcellulose (CMC), higher = larger tumour): 80 % of control | T/C (endpoint: mean tumor weight, dose: 250.0 mg/kg/injection, schedule: Q01DX011 (ip), vehicle: carboxymethylcellulose (CMC), higher = larger tumour): 76 % of control | T/C (endpoint: mean tumor weight, dose: 300.0 mg/kg/injection, schedule: Q01DX011 (ip), vehicle: carboxymethylcellulose (CMC), higher = larger tumour): 62 % of control | T/C (endpoint: mean tumor weight, dose: 500.0 mg/kg/injection, schedule: Q01DX011 (ip), vehicle: carboxymethylcellulose (CMC), higher = larger tumour): 53 % of control

CC(C)CCC[C@@H](C)[C@H]1CC[C@H]2[C@@H]3CC=C4C[C@@H](OC(=O)Cc5ccc(N(CCCl)CCCl)cc5)CC[C@]4(C)[C@H]3CC[C@]12C
T/C (endpoint: mean tumor weight, dose: 50.0 mg/kg/injection, schedule: Q01DX011 (sc), vehicle: steriod suspending solution, higher = larger tumour): 84 % of control | T/C (endpoint: mean tumor weight, dose: 100.0 mg/kg/injection, schedule: Q01DX011 (sc), vehicle: steriod suspending solution, higher = larger tumour): 76 % of control | T/C (endpoint: mean tumor weight, dose: 200.0 mg/kg/injection, schedule: Q01DX011 (sc), vehicle: steriod suspending solution, higher = larger tumour): 78 % of control | T/C (endpoint: mean tumor weight, dose: 400.0 mg/kg/injection, schedule: Q01DX011 (sc), vehicle: steriod suspending solution, higher = larger tumour): 57 % of control

O=[N+]([O-])c1ccc2c(N=Nc3c(O)ccc4ccccc34)c(O)cc(S(=O)(=O)O)c2c1
T/C (endpoint: mean tumor weight, dose: 180.0 mg/kg/injection, schedule: Q01DX011 (ip), vehicle: saline, higher = larger tumour): 59 % of control | T/C (endpoint: mean tumor weight, dose: 265.0 mg/kg/injection, schedule: Q01DX011 (ip), vehicle: saline, higher = larger tumour): 50 % of control | T/C (endpoint: median survival time, dose: 50.0 mg/kg/injection, schedule: Q01DX009 (ip), vehicle: saline, higher = longer survival): 111 % of control | T/C (endpoint: median survival time, dose: 100.0 mg/kg/injection, schedule: Q01DX009 (ip), vehicle: saline, higher = longer survival): 98 % of control | T/C (endpoint: median survival time, dose: 200.0 mg/kg/injection, schedule: Q01DX009 (ip), vehicle: saline, higher = longer survival): 95 % of control

CCC(=O)O[C@H]1CC[C@H]2[C@@H]3CCC4=CC(=O)CC[C@]4(C)[C@H]3CC[C@]12C
T/C (endpoint: mean tumor weight, dose: 125.0 mg/kg/injection, schedule: Q01DX011 (ip), vehicle: steriod suspending solution, higher = larger tumour): 86 % of control | T/C (endpoint: mean tumor weight, dose: 250.0 mg/kg/injection, schedule: Q01DX011 (ip), vehicle: steriod suspending solution, higher = larger tumour): 70 % of control | T/C (endpoint: mean tumor weight, dose: 500.0 mg/kg/injection, schedule: Q01DX011 (ip), vehicle: steriod suspending solution, higher = larger tumour): 84 % of control | T/C (endpoint: median survival time, dose: 40.0 mg/kg/injection, schedule: Q02DX009 (ip), vehicle: Klucel (hydroxypropylcellulose) (HPC), higher = longer survival): 90 % of control | T/C (endpoint: median survival time, dose: 80.0 mg/kg/injection, schedule: Q02DX009 (ip), vehicle: Klucel (hydroxypropylcellulose) (HPC), higher = longer survival): 97 % of control | T/C (endpoint: median survival time, dose: 160.0 mg/kg/injection, schedule: Q02DX009 (ip), vehicle: Klucel (hydroxypropylcellulose) (HPC), higher = longer survival): 103 % of control | T/C (endpoint: median survival time, dose: 320.0 mg/kg/injection, schedule: Q02DX009 (ip), vehicle: Klucel (hydroxypropylcellulose) (HPC), higher = longer survival): 90 % of control

CC(=O)OC(C)C1C2=C(C(=O)CC1(C)O)C(=O)c1c(ccc(-c3ccc4c(c3O)C(=O)C3=C(C4=O)C(C(C)OC(C)=O)C(C)(O)CC3=O)c1O)C2=O (stereo not drawn)
T/C (endpoint: median survival time, dose: 0.1 mg/kg/injection, schedule: Q01DX009 (ip), vehicle: saline + alcohol, higher = longer survival): 112 % of control | T/C (endpoint: median survival time, dose: 0.38 mg/kg/injection, schedule: Q01DX009 (ip), vehicle: saline + alcohol, higher = longer survival): 122 % of control | T/C (endpoint: median survival time, dose: 0.75 mg/kg/injection, schedule: Q01DX009 (ip), vehicle: saline + alcohol, higher = longer survival): 119 % of control | T/C (endpoint: median survival time, dose: 1.5 mg/kg/injection, schedule: Q01DX009 (ip), vehicle: saline + alcohol, higher = longer survival): 97 % of control | T/C (endpoint: median survival time, dose: 1.56 mg/kg/injection, schedule: Q01DX009 (ip), vehicle: saline with Tween-80, higher = longer survival): 101 % of control

CCCN(/C=C/C=C/C=[N+](CCC)CCC)CCC
T/C (endpoint: median survival time, dose: 0.03 mg/kg/injection, schedule: Q01DX009 (ip), vehicle: saline, higher = longer survival): 114 % of control | T/C (endpoint: median survival time, dose: 0.05 mg/kg/injection, schedule: Q01DX009 (ip), vehicle: saline, higher = longer survival): 100 % of control | T/C (endpoint: median survival time, dose: 0.1 mg/kg/injection, schedule: Q01DX009 (ip), vehicle: saline, higher = longer survival): 115 % of control | T/C (endpoint: median survival time, dose: 0.2 mg/kg/injection, schedule: Q01DX009 (ip), vehicle: saline, higher = longer survival): 108 % of control

CCN=C=NCCCN(C)C
T/C (endpoint: median survival time, dose: 10.0 mg/kg/injection, schedule: Q01DX009 (ip), vehicle: saline, higher = longer survival): 106 % of control | T/C (endpoint: median survival time, dose: 20.0 mg/kg/injection, schedule: Q01DX009 (ip), vehicle: saline, higher = longer survival): 107 % of control | T/C (endpoint: median survival time, dose: 40.0 mg/kg/injection, schedule: Q01DX009 (ip), vehicle: saline, higher = longer survival): 93 % of control | T/C (endpoint: median survival time, dose: 80.0 mg/kg/injection, schedule: Q01DX009 (ip), vehicle: saline, higher = longer survival): 96 % of control

C/C(=C\c1ccc(C)cc1)[N+](=O)[O-]
T/C (endpoint: median survival time, dose: 25.0 mg/kg/injection, schedule: Q01DX009 (ip), vehicle: saline with Tween-80, higher = longer survival): 96 % of control | T/C (endpoint: median survival time, dose: 50.0 mg/kg/injection, schedule: Q01DX009 (ip), vehicle: saline with Tween-80, higher = longer survival): 95 % of control | T/C (endpoint: median survival time, dose: 100.0 mg/kg/injection, schedule: Q01DX009 (ip), vehicle: saline with Tween-80, higher = longer survival): 94 % of control

Nc1ccc2nc3ccc(N)cc3[n+](-c3ccccc3)c2c1
T/C (endpoint: median survival time, dose: 2.0 mg/kg/injection, schedule: Q01DX009 (ip), vehicle: saline, higher = longer survival): 88 % of control

NC(Cc1cc(I)c(Oc2ccc(O)c(I)c2)c(I)c1)C(=O)O (stereo not drawn)
T/C (endpoint: mean tumor weight, dose: 25.0 micrograms/kg/injection, schedule: Q01DX011 (ip), vehicle: saline, higher = larger tumour): 93 % of control | T/C (endpoint: mean tumor weight, dose: 100.0 micrograms/kg/injection, schedule: Q01DX011 (ip), vehicle: saline, higher = larger tumour): 115 % of control | T/C (endpoint: mean tumor weight, dose: 200.0 micrograms/kg/injection, schedule: Q01DX011 (ip), vehicle: saline, higher = larger tumour): 118 % of control

CC(C)CCCCCCCCCCCCC(=O)NCC(=O)NC1C(O)C(O)C(Nc2ncnc3nc[nH]c23)OC1C(O)CO (stereo not drawn)
T/C (endpoint: mean tumor weight, dose: 0.25 mg/kg/injection, schedule: Q01DX011 (ip), vehicle: saline, higher = larger tumour): 69 % of control | T/C (endpoint: mean tumor weight, dose: 0.5 mg/kg/injection, schedule: Q01DX011 (ip), vehicle: saline, higher = larger tumour): 54 % of control | T/C (endpoint: mean tumor weight, dose: 1.0 mg/kg/injection, schedule: Q01DX011 (ip), vehicle: saline, higher = larger tumour): 100 % of control

CNC=O
T/C (endpoint: mean tumor weight, dose: 250.0 mg/kg/injection, schedule: Q01DX011 (ip), vehicle: saline, higher = larger tumour): 67 % of control and 69 % of control | T/C (endpoint: mean tumor weight, dose: 500.0 mg/kg/injection, schedule: Q01DX011 (ip), vehicle: saline, higher = larger tumour): 10 % of control and 12 % of control

O=C(O)c1cc(=O)cc(C(=O)O)o1
T/C (endpoint: mean tumor weight, dose: 25.0 mg/kg/injection, schedule: Q01DX011 (ip), vehicle: saline, higher = larger tumour): 66 % of control | T/C (endpoint: mean tumor weight, dose: 50.0 mg/kg/injection, schedule: Q01DX011 (ip), vehicle: saline, higher = larger tumour): 76 % of control | T/C (endpoint: mean tumor weight, dose: 100.0 mg/kg/injection, schedule: Q01DX011 (ip), vehicle: saline, higher = larger tumour): 77 % of control

CC(=O)OC1CCC(NC(=O)N(CCCl)N=O)CC1 (stereo not drawn)
T/C (endpoint: median survival time, dose: 24.0 mg/kg/injection, schedule: Q01DX001 (ip), vehicle: other, higher = longer survival): 95 % of control

CC1([CH2][Hg][I])COCC([CH2][Hg][I])O1 (stereo not drawn)
T/C (endpoint: mean tumor weight, dose: 5.0 mg/kg/injection, schedule: Q01DX011 (ip), vehicle: saline, higher = larger tumour): 63 % of control | T/C (endpoint: mean tumor weight, dose: 10.0 mg/kg/injection, schedule: Q01DX011 (ip), vehicle: saline, higher = larger tumour): 42 % of control | T/C (endpoint: mean tumor weight, dose: 20.0 mg/kg/injection, schedule: Q01DX011 (ip), vehicle: saline, higher = larger tumour): 52 % of control | T/C (endpoint: mean tumor weight, dose: 40.0 mg/kg/injection, schedule: Q01DX011 (ip), vehicle: saline, higher = larger tumour): 39 % of control

Cn1c(=O)[nH]c2nncnc2c1=O
T/C (endpoint: median survival time, dose: 8.0 mg/kg/injection, schedule: Q01DX009 (ip), vehicle: water, higher = longer survival): 108 % of control | T/C (endpoint: median survival time, dose: 16.0 mg/kg/injection, schedule: Q01DX009 (ip), vehicle: water, higher = longer survival): 86 % of control | T/C (endpoint: median survival time, dose: 37.5 micrograms/kg/injection, schedule: Q01DX009 (ip), vehicle: water, higher = longer survival): 123 % of control | T/C (endpoint: median survival time, dose: 75.0 micrograms/kg/injection, schedule: Q01DX009 (ip), vehicle: water, higher = longer survival): 123 % of control | T/C (endpoint: median survival time, dose: 150.0 micrograms/kg/injection, schedule: Q01DX009 (ip), vehicle: water, higher = longer survival): 111 % of control | T/C (endpoint: median survival time, dose: 300.0 micrograms/kg/injection, schedule: Q01DX009 (ip), vehicle: water, higher = longer survival): 123 % of control

O=CC1CO1 (stereo not drawn)
T/C (endpoint: mean tumor weight, dose: 29.0 mg/kg/injection, schedule: Q01DX011 (ip), vehicle: saline, higher = larger tumour): 89 % of control | T/C (endpoint: mean tumor weight, dose: 44.0 mg/kg/injection, schedule: Q01DX011 (ip), vehicle: saline, higher = larger tumour): 44 % of control | T/C (endpoint: mean tumor weight, dose: 66.0 mg/kg/injection, schedule: Q01DX011 (ip), vehicle: saline, higher = larger tumour): 75 % of control
